From PubChem BioAssay (NCI)
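Following 48 hours of exposure in 96-well plates, responses at five concentrations were used to interpolate endpoints linearly. GI50 marks 50% less growth. At the TGI there is no net growth.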

Assays:
Experiment in all cases: inhibition of tumour cell growth, NCI panel, 48 h
[1] = system: 786-0 renal
[2] = system: A498 renal
[3] = system: A549 NSCLC
[4] = system: ACHN renal
[5] = system: BT-549 breast
[6] = system: CAKI-1 renal
[7] = system: CCRF-CEM leukemia
[8] = system: COLO 205 colon
[9] = system: DU-145 prostate
[10] = system: EKVX NSCLC
[11] = system: HCC-2998 colon
[12] = system: HCT-116 colon
[13] = system: HCT-15 colon
[14] = system: HL-60(TB) leukemia
[15] = system: HOP-62 NSCLC
[16] = system: HOP-92 NSCLC
[17] = system: HS 578T breast
[18] = system: HT29 colon
[19] = system: IGROV1 ovarian
[20] = system: K-562 leukemia
[21] = system: KM12 colon
[22] = system: LOX IMVI melanoma
[23] = system: M14 melanoma
[24] = system: MALME-3M melanoma
[25] = system: MCF7 breast
[26] = system: MDA-MB-231 breast
[27] = system: MDA-MB-435
[28] = system: MDA-MB-468 breast
[29] = system: MOLT-4 leukemia
[30] = system: NCI-H226 lung
[31] = system: NCI-H23 lung
[32] = system: NCI-H460 lung
[33] = system: NCI-H522 lung
[34] = system: NCI/ADR-RES ovarian
[35] = system: OVCAR-3 ovarian
[36] = system: OVCAR-4 ovarian
[37] = system: OVCAR-5 ovarian
[38] = system: OVCAR-8 ovarian
[39] = system: PC-3 prostate
[40] = system: RPMI-8226 leukemia
[41] = system: RXF 393 renal
[42] = system: SF-268 CNS
[43] = system: SF-295 CNS
[44] = system: SF-539 CNS
[45] = system: SK-MEL-2 melanoma
[46] = system: SK-MEL-28 melanoma
[47] = system: SK-MEL-5 melanoma
[48] = system: SK-OV-3 ovarian
[49] = system: SN12C renal
[50] = system: SNB-19 CNS
[51] = system: SNB-75 CNS
[52] = system: SR leukemia
[53] = system: SW-620 colon
[54] = system: T-47D breast
[55] = system: TK-10 renal
[56] = system: U251 CNS
[57] = system: UACC-257 melanoma
[58] = system: UACC-62 melanoma
[59] = system: UO-31 renal

SMILES: O=C(CSc1nc2ccccc2c(=O)n1-c1ccc(Cl)cc1)Nc1ccc(-c2nc3ccc([N+](=O)[O-])cc3[nH]2)cc1
- GI50 [1]: 2.91 µM
- TGI [1]: 8.4 µM
- GI50 [2]: 3.23 µM
- TGI [2]: 12.9 µM
- GI50 [3]: 1.88 µM
- TGI [3]: 6.81 µM
- GI50 [4]: 3.1 µM
- TGI [4]: 21.2 µM
- GI50 [5]: 1.84 µM
- TGI [5]: 6.61 µM
- GI50 [6]: 12 µM
- TGI [6]: > 100 µM
- GI50 [7]: 13.5 µM
- TGI [7]: > 100 µM
- GI50 [8]: 2.34 µM
- TGI [8]: 6.07 µM
- GI50 [9]: 3.79 µM
- TGI [9]: > 100 µM
- GI50 [10]: 1.91 µM
- TGI [10]: 5.7 µM
- GI50 [11]: 2.95 µM
- TGI [11]: 15.2 µM
- GI50 [12]: 2.9 µM
- TGI [12]: > 100 µM
- GI50 [13]: 2.77 µM
- TGI [13]: > 100 µM
- GI50 [14]: 28.1 µM
- TGI [14]: > 100 µM
- GI50 [15]: 1.26 µM
- TGI [15]: 3 µM
- GI50 [16]: 1.75 µM
- TGI [16]: 6.07 µM
- GI50 [17]: 1.6 µM
- TGI [17]: 4.57 µM
- GI50 [18]: 2.83 µM
- TGI [18]: 11.4 µM
- GI50 [19]: 1.87 µM
- TGI [19]: 5 µM
- GI50 [20]: 2.63 µM
- TGI [20]: > 100 µM
- GI50 [21]: 10.2 µM
- TGI [21]: > 100 µM
- GI50 [22]: 1.44 µM
- TGI [22]: 3.04 µM
- GI50 [23]: 2.32 µM
- TGI [23]: 8.05 µM
- GI50 [24]: 2.18 µM
- TGI [24]: 7.44 µM
- GI50 [25]: 1.18 µM
- TGI [25]: 5.09 µM
- GI50 [26]: 1.82 µM
- TGI [26]: 4.62 µM
- GI50 [27]: 2.98 µM
- TGI [27]: 13.1 µM
- GI50 [28]: 1.4 µM
- TGI [28]: 3.2 µM
- GI50 [29]: 3.21 µM
- TGI [29]: > 100 µM
- GI50 [30]: 1.77 µM
- TGI [30]: 4.04 µM
- GI50 [31]: 1.8 µM
- TGI [31]: 5.36 µM
- GI50 [32]: 1.56 µM
- TGI [32]: 3.9 µM
- GI50 [33]: 1.82 µM
- TGI [33]: 4.65 µM
- GI50 [34]: 5.29 µM
- TGI [34]: > 100 µM
- GI50 [35]: 2.53 µM
- TGI [35]: 7.43 µM
- GI50 [36]: 1.59 µM
- TGI [36]: 5.11 µM
- GI50 [37]: 2.65 µM
- TGI [37]: 20.5 µM
- GI50 [38]: 1.08 µM
- TGI [38]: 2.75 µM
- GI50 [39]: 1.79 µM
- TGI [39]: 7.01 µM
- GI50 [40]: 4.4 µM
- TGI [40]: > 100 µM
- GI50 [41]: 1.5 µM
- TGI [41]: 3.69 µM
- GI50 [42]: 4.62 µM
- TGI [42]: > 100 µM
- GI50 [43]: 1.73 µM
- TGI [43]: 4.56 µM
- GI50 [44]: 1.9 µM
- TGI [44]: 4.06 µM
- GI50 [45]: 1.95 µM
- TGI [45]: 5.31 µM
- GI50 [46]: 1.72 µM
- TGI [46]: 3.87 µM
- GI50 [47]: 3.01 µM
- TGI [47]: 11.7 µM
- GI50 [48]: 2.82 µM
- TGI [48]: 32.7 µM
- GI50 [49]: 1.58 µM
- TGI [49]: 4.21 µM
- GI50 [50]: 2.33 µM
- TGI [50]: 8.77 µM
- GI50 [51]: 2.03 µM
- TGI [51]: 8.21 µM
- GI50 [52]: 2.16 µM
- TGI [52]: 24.1 µM
- GI50 [53]: 3.52 µM
- TGI [53]: 74.1 µM
- GI50 [54]: 1.41 µM
- TGI [54]: 3.56 µM
- GI50 [55]: 3.61 µM
- TGI [55]: 20.5 µM
- GI50 [56]: 1.59 µM
- TGI [56]: 3.58 µM
- GI50 [57]: 1.69 µM
- TGI [57]: 4.95 µM
- GI50 [58]: 1.76 µM
- TGI [58]: 4.78 µM
- GI50 [59]: 30 µM
- TGI [59]: > 100 µM
